Laboratory results taken from patent publication US12552770B2, “Compounds for treating respiratory disease” (TMEM16A Limited, priority 2020, dated 2026).

Target: T1, human TMEM16A (TMEM16Aabc variant) (Homo sapiens, UniProt Q5XXA6, DEL476-501)
T1 sequence (Q5XXA6 with tags, fused parts or gaps isoform Q5XXA6-5 DEL539-564): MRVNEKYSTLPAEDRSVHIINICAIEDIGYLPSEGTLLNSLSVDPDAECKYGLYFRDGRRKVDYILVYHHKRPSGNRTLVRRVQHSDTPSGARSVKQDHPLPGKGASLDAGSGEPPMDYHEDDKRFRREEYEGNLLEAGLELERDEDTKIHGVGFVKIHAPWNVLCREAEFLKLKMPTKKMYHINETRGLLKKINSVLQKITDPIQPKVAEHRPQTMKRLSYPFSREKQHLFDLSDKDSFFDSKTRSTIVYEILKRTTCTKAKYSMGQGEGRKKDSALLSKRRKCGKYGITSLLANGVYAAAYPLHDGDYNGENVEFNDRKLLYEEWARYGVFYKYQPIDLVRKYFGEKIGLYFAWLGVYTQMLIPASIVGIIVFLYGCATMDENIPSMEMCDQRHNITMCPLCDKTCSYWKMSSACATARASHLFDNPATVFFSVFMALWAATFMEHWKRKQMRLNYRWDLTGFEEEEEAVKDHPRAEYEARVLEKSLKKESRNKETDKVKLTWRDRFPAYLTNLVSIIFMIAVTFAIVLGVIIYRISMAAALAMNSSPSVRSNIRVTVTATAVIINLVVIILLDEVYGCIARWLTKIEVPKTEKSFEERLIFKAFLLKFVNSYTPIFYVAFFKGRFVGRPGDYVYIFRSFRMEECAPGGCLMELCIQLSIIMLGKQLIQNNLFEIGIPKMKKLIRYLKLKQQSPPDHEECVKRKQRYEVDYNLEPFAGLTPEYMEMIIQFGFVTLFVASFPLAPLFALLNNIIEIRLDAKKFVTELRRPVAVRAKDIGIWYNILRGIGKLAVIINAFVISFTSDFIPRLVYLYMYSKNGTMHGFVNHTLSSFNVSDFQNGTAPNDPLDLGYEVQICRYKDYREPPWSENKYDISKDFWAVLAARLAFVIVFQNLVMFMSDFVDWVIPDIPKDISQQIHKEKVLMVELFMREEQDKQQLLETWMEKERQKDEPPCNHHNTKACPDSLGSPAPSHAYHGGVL
Assay: Automated whole-cell patch clamp (Qpatch) TMEM16A potentiator assay in recombinant cells
Format: cell-based
Details: FRT cells stably expressing human TMEM16A, intracellular calcium at EC20; for % Potentiation @ 3.33 μM Avg: 3.33 μM solution of test compound, percentage increase of baseline TMEM16A current, peak current at +70 mV; for EC50: calculated from cumulative concentration response curve, whole-cell patch clamp
Protocol: Automated Whole-Cell Patch Clamp Assay to Detect TMEM16A Activity in Recombinant Cells
Cell Culture and Preparation
Fisher rat thyroid (FRT) cells stably expressing human TMEM16A (TMEM16Aabc variant; Dr Luis Galietta, Insituto Giannina, Italy) were cultured in T-75 flasks in Hams F-12 media with Coon's modification (Sigma) supplemented with 10% (v/v) foetal bovine serum, penicillin-streptomycin (10,000 U/mL/10000 μg/mL), G-418 (750 μg/mL), L-glutamine (2 mM) and sodium bicarbonate solution (7.5% v/v). At ˜90% confluence cells were harvested for experiments by detachment with a 2:1 (v/v) mixture of Detachin (BMS Biotechnology) and 0.25% (w/v) trypsin-EDTA. Cells were diluted to a density of 3.5-4.5×10^6 cells/mL with media consisting of CHO-S-SFM II (Sigma), 25 mM HEPES (Sigma) and Soy bean trypsin inhibitor (Sigma).
Whole-Cell Patch Clamp Recording
FRT-TMEM16A cells were whole-cell patch clamped using an automated planar patch clamp system (Qpatch, Sophion). Briefly, once high resistance (GOhm) seals were established between the cells and the planar recording array the patch was ruptured using suction pulses to establish the whole-cell recording configuration of the patch clamp technique. The assay employed the following solutions (all reagents Sigma):
Intracellular solution (mM): N-methyl-D-glucamine 130, CaCl2 18.2, MgCl2 1, HEPES 10, EGTA 10, BAPTA 20, Mg-ATP 2, pH 7.25, 325 mOsm with sucrose.
Extracellular solution (mM): N-methyl-D-glucamine 130, CaCl2 2, MgCl2 1, HEPES 10, pH 7.3, 320 mOsm with sucrose.
The intracellular solution buffers intracellular calcium at levels required to give ˜20% activation of the maximal TMEM16A mediated current (EC20 for calcium ions). Cells were voltage clamped at a holding potential of −70 mV and a combined voltage step (to +70 mV)/ramp (−90 my to +90 mV) was applied at 0.05 Hz. After a period of current stabilisation test compounds, solubilised in 100% (v/v) DMSO and subsequently diluted into extracellular solution, were applied to generate a cumulative concentration response curve. Each concentration of test compound was incubated for 5 minutes before addition of the next concentration. After the final concentration was tested a supramaximal concentration of either a known active positive modulator or the TMEM16A inhibitor, CaCCinhA01 (Del La Fuente et al, 2008) was added to define the upper and lower limits of the assay.
Compound activity was quantified by measuring the increase in current upon compound addition and expressing this as a percentage increase of baseline TMEM16A current level. Percentage increases in current were determined for each concentration and the data plotted as a function of concentration using either the Qpatch software or Graphpad Prism v6.05 providing the concentration which gave 50% of its maximal effect (EC50) and maximum efficacy (percentage of baseline increase).
In FIG. 1, IBL equals baseline current, I[#1] equals the peak current during test compound concentration 1 incubation period and so on.
Peak TMEM16A current at +70 mV was plotted as a function of time over the assay period. Baseline current (IBL) was measured after a period of stabilisation. The increase in current for each compound addition was determined by taking the peak current during the incubation period and subtracting the current from the previous recording period and then expressing this as a percentage of the baseline current. For test compound concentration 1 in FIG. 1 this is:
For each additional concentration tested the increase in current was determined by subtracting the current from the previous incubation period and normalising the baseline value—for test concentration 2 in FIG. 1 this is:
The values for each test concentration were plotted as a cumulative function of concentration e.g. for test concentration two this would be the sum of the peak changes measured during concentration one plus concentration two.

Row | % Potentiation @ 3.33 μM Avg [%] | EC50 [nM] | SMILES
1 | 157.3 | 338 | O=C(CC12CC3CC(CC(C3)C1)C2)Nc1ccc2[nH]c(CC3CCCCC3)nc2c1 [Example 1, 2-(1-Adamantyl)-N-[2-(cyclohexylmethyl)-1H-benzimidazol-5-yl]acetamide]
2 | 100.5 | 1100 | O=C(CC12CC3CC(CC(C3)C1)C2)Nc1ccc2[nH]c(CC3CCCCO3)nc2c1 (stereo not shown) [Example 1.1, 2-(1-Adamantyl)-N-[2-(tetrahydropyran-2-ylmethyl)-1H-benzimidazol-5-yl]acetamide]
3 | 183.6 | 268 | O=C(CC1C2CC3CC(C2)CC1C3)Nc1ccc2[nH]c(Cc3ccccc3)nc2c1 (stereo not shown) [Example 2, 2-(2-Adamantyl)-N-(2-benzyl-1H-benzimidazol-5-yl)acetamide]
4 | 149.1 | 808 | O=C(CC1C2CC3CC(C2)CC1C3)Nc1ccc2[nH]c(CCc3ccccc3)nc2c1 (stereo not shown) [Example 2.1, 2-(2-Adamantyl)-N-[2-(2-phenylethyl)-1H-benzimidazol-5-yl]acetamide]
5 | 194.2 | 651 | COC(c1ccccc1)c1nc2cc(NC(=O)CC3C4CC5CC(C4)CC3C5)ccc2[nH]1 (stereo not shown) [Example 2.2, 2-(2-Adamantyl)-N-[2-[methoxy(phenyl)methyl]-1H-benzimidazol-5-yl]acetamide]
6 | 211.2 | 263 | COc1ccccc1Cc1nc2cc(NC(=O)CC3C4CC5CC(C4)CC3C5)ccc2[nH]1 (stereo not shown) [Example 2.3, 2-(2-Adamantyl)-N-[2-[(2-methoxyphenyl)methyl]-1H-benzimidazol-5-yl]acetamide]
7 | 108.2 | 1640 | CN[C@H](c1ccccc1)c1nc2cc(NC(=O)CC3C4CC5CC(C4)CC3C5)ccc2[nH]1 (stereo partly drawn) [Example 3, 2-(2-Adamantyl)-N-[2-[(R)-methylamino(phenyl)methyl]-1H-benzimidazol-5-yl]acetamide]
8 | 187.3 | 732 | O=C(CC12CC3CC(CC(C3)C1)C2)Nc1ccc2[nH]c(Cc3cccnc3Cl)nc2c1 [Example 4, 2-(1-Adamantyl)-N-[2-[(2-chloro-3-pyridyl)methyl]-1H-benzimidazol-5-yl]acetamide]
9 | 156.9 | 79 | O=C(CC1C2CC3CC(C2)CC1C3)Nc1ccc2[nH]c(Cc3ccccc3O)nc2c1 (stereo not shown) [Example 5, 2-(2-Adamantyl)-N-[2-[(2-hydroxyphenyl)methyl]-1H-benzimidazol-5-yl]acetamide]
10 | 165.9 | 596 | O=C(CC1C2CC3CC(C2)CC1C3)Nc1ccc2[nH]c(Cc3ccc(O)cc3)nc2c1 (stereo not shown) [Example 5.1, 2-(2-Adamantyl)-N-[2-[(4-hydroxyphenyl)methyl]-1H-benzimidazol-5-yl]acetamide]
11 | 204.2 | 254 | O=C(CC1C2CC3CC(C2)CC1C3)Nc1ccc2[nH]c(Cc3cc(Cl)ccc3O)nc2c1 (stereo not shown) [Example 5.2, 2-(2-Adamantyl)-N-[2-[(5-chloro-2-hydroxy-phenyl)methyl]-1H-benzimidazol-5-yl]acetamide]
12 | 246.3 | 1250 | O=C(CC12CC3CC(CC(C3)C1)C2)Nc1ccc2[nH]c(CNC(=O)OCC(F)(F)F)nc2c1 [Example 6, 2,2,2-Trifluoroethyl N-[[5-[[2-(1-adamantyl)acetyl]amino]-1H-benzimidazol-2-yl]methyl]carbamate]
13 | 136.5 | 1580 | Cc1noc(C)c1-c1cccc(Cc2nc3ccc(NC(=O)CC45CC6CC(CC(C6)C4)C5)cc3[nH]2)c1 [Example 7, 2-(1-Adamantyl)-N-[2-[[3-(3,5-dimethylisoxazol-4-yl)phenyl]methyl]-3H-benzimidazol-5-yl]acetamide]
14 | 129.2 | 282 | CC(C)(C)OC(=O)NCc1nc2cc(NC(=O)CC3C4CC5CC(C4)CC3C5)ccc2[nH]1 (stereo not shown) [Example 8, tert-Butyl N-[[5-[[2-(2-adamantyl)acetyl]amino]-1H-benzimidazol-2-yl]methyl]carbamate]
15 | 87.4 | 841 | O=C(CC1C2CC3CC(C2)CC1C3)Nc1ccc2[nH]c(OC3CCOC3)nc2c1 (stereo not shown) [Example 9, 2-(2-Adamantyl)-N-(2-tetrahydrofuran-3-yloxy-1H-benzimidazol-5-yl)acetamide]
16 | 67.7 | 122 | O=C(NCC1CCCCCC1)c1ccc2oc(Cc3ccccc3O)nc2c1 [Example 10, N-(Cycloheptylmethyl)-2-[(2-hydroxyphenyl)methyl]-1,3-benzoxazole-5-carboxamide]
17 | 122.7 | 98 | Nc1c2ccc(NC(=O)CC34CC5CC(CC(C5)C3)C4)cc2nn1Cc1ccccc1O [Example 11, 2-(1-Adamantyl)-N-[3-amino-2-[(2-hydroxyphenyl)methyl]indazol-6-yl]acetamide]
18 | 44.6 | 3340 | CC(C)c1nc2cc(NC(=O)CC3CCCCC3)ccc2o1 [Example 12, 2-Cyclohexyl-N-(2-isopropyl-1,3-benzoxazol-5-yl)acetamide]
19 | 96.6 | 198 | O=C(NCC1CCCCCC1)c1ccc2cn(Cc3ccccc3O)nc2c1 [Example 13, N-(Cycloheptylmethyl)-2-[(2-hydroxyphenyl)methyl]indazole-6-carboxamide]
20 | 59.4 | – | O=C(CC12CC3CC(CC(C3)C1)C2)Nc1cc2nc(Cc3ccccc3)[nH]c2cn1 [Example 14, 2-(1-Adamantyl)-N-(2-benzyl-3H-imidazo[4,5-c]pyridin-6-yl)acetamide]
21 | 58.6 | 1060 | O=C(NCC1CCCCCC1)c1ccn2cc(Cc3ccccc3)nc2c1 [Example 15, 2-Benzyl-N-(cycloheptylmethyl)imidazo[1,2-a]pyridine-7-carboxamide]
22 | 137.3 | 502 | O=C(CC12CC3CC(CC(C3)C1)C2)Nc1ccc2cn(Cc3ccccc3)nc2c1 [Example 16, 2-(1-Adamantyl)-N-(2-benzylindazol-6-yl)acetamide]
